We go through eight molecules from patent US20160113911A1, “METHODS AND COMPOSITIONS FOR THE TREATMENT OF CANCER” (THE GENERAL HOSPITAL CORPORATION, priority 2013, published 2016).

Residue numbers refer to the chain shown, from its start. Names and notes keep the numbering of the source.

The test system of one data set is HEK 293T cells. The data set is described as follows: Monitored cell proliferation assay (xCELLigence growth curves, doubling time). The class given is cell-based, human. As to the method: Seventy two hours post transfection 1×10^4 HEK 293T cells were seeded per well of a 96 well plate, and then treated after 24h. Cell proliferation was monitored with an xCELLigence system (Roche) (Vistejnova et al., 2009).

The subject of a further data set is KDM4A. The data set is described as follows: KDM4A protein levels by western blot. Conditions: 293T cells, fractionated in presence of NEM. It counts as cell-based, human. As to the method: Western blot analyses were performed according to (Black et al., 2010).
Western blots were performed as in (Black et al., 2010). Briefly, adherent cells were either scraped directly into PBS, or washed with PBS, trypsinized and collected by centrifuging at 2,000 RPM for 5 minutes. For preparation of whole-cell lysates, cell pellets were washed once in ice-cold PBS and resuspended in RIPA lysis buffer [50 mM Tris pH 7.4, 150 mM NaCl, 0.25% Sodium Deoxycholate, 1% NP40, 1 mM EDTA, 10% Glycerol] supplemented with complete protease inhibitor and PhosSTOP™ phosphatase inhibitor cocktails (Roche). Cells were lysed on ice for 15 minutes and immediately frozen at −80° C. for 10 min. Lysates were subsequently sonicated at 70% amplitude for 15 minutes in a QSonica Q800R™ and cleared of cell debris by centrifuging at 12,000 RPM for 15 minutes, before being analyzed by western blotting. For HIF1α expression, adherent cells were washed twice with ice-cold PBS and scraped directly in warmed 1× Laemmli buffer. Samples were sonicated at 70% amplitude for 15 minutes and boiled immediately prior to western blotting.
(Immunoblotting shows a protein as a band on a membrane.)

The test system of data set [1] is 1q12h copy gain in RPE cells. Kind of data set: FISH for site-specific copy gain. The class given is cell-based, human. Conditions: for hypoxia-dependent copy gain of 1q12h / hypoxia-induced 1q12h copy number gains / KDM4A-dependent 1q12h copy gain upon co-expression: RPE cells; for hypoxia-dependent copy gain of 1q12h: 1% O2 24 hours, JIB-04 62.5 nM or 2 mM succinate pre-treatment, or overexpression; for hypoxia-induced 1q12h copy number gains: 4% oxygen, transfection or 2 mM succinate for 24 hours; for KDM4A-dependent 1q12h copy gain upon co-expression: transient transfection 24 hours. As to the method:
FISH was performed as described in (Manning et al., 2010). Probes for 1q12h, 1q telomere, and chromosome 2, 6, 8, and X alpha satellite were purchased from Rainbow Scientific. Probes for 1q12 (RP11-80L2), Xq13.2 (RP11-451A22), Xq13.1 (RP11-177A4) were purchased as BAC clones from Children's Hospital Oakland Research Institute (CHORI BacPac) FISH verified clone repository. Oligonucleotide probes for 1q21.2 (BCL9) and 1q23.3 were purchased from Agilent (SureFISH). BACS were prepared utilizing PureLink HiPure Plasmid Filter Maxiprep kit (Life Technologies) using the recommended modified wash buffer. Probes were nick translated (Abbot Molecular Kit) in the presence of fluorescently labeled dTTP (Enzo Life Science). Images of multiple planes of fields of nuclei were acquired on an Olympus IX81 Spinning Disk Microscope and analyzed using Slidebook 5.0 software. We used a conservative scoring metric for copy gain. Any foci that were touching were scored as a single foci to prevent increased numbers due to normally replicated foci. For RPE cells, copy gain was scored as any cell with 3 or more distinct foci. For 293T cells, copy gain was scored for any cell with 5 or more distinct foci. For RPE cells each experiment includes at least one replicate from the two different polyclonal stable cell preparations. At least 100 cells for each replicate were scored for all experiments except analysis of single cell clones.
Cells were plated onto culture dishes and allowed to adhere for 20-24 hrs in normoxia (5% CO2, 21% O2, and 74% N2). For hypoxic treatment, cells were maintained in a HERA Cell 150™ incubator (Thermo Scientific) flushed with 5% CO2, 1% O2 or 4% O2, and balanced with N2 for the duration of the experiment. Incubator calibrations were carried out by Bianchi Associates Calibrations/Verifications.
To release, cells were washed twice with culture medium pre-conditioned in normoxia or hypoxia, and supplied with fresh pre-conditioned media. For JIB-04 treatment, normoxic cells were pre-treated with 62.5 nM JIB-04 (Xcessbio) for 24 hrs, then treated again with JIB-04 and either transferred to 1% O2 or maintained in normoxia for an additional 24 hrs. Succinate was administered at a final concentration of 2 mM and cells were either maintained in normoxia for 72 hrs or maintained in normoxia for 48 hrs prior to being transferred to 1% O2 for 24 hrs.
FISH was performed as described in (Black et al., 2013; Manning et al., 2010). Probes for 1q12h, 1q telomere, chromosome 8 centromere (alpha satellite), and X centromere (alpha satellite) were purchased from Rainbow Scientific. Probes for Xq13.1 (RP11-177A4), Zebrafish BCL9 (CH73-15J19) and Zebrafish IGBP1 (CH73-223D24) were purchased as BAC clones from Children's Hospital Oakland Research Institute (CHORI BacPac) clone repository. Probes for 1q21.2 (BCL9) and 1q23.3 were purchased from Agilent (SureFISH).
FISH was performed as described in (Black et al., 2013; Manning et al., 2010). Probes for 1q12h, 1q telomere, chromosome 8 centromere (alpha satellite), and X centromere (alpha satellite) were purchased from Rainbow Scientific. Probes for Xq13.1 (RP11-177A4), Zebrafish BCL9 (CH73-15J19) and Zebrafish IGBP1 (CH73-223D24) were purchased as BAC clones from Children's Hospital Oakland Research Institute (CHORI BacPac) clone repository. Probes for 1q21.2 (BCL9) and 1q23.3 were purchased from Agilent (SureFISH). BACS were prepared utilizing PureLink HiPure™ Plasmid Filter Maxiprep kit (Life Technologies) using the recommended modified wash buffer. Probes were nick translated (Abbot Molecular Kit) in the presence of fluorescently labeled dTTP (Enzo Life Science). Images of multiple planes of fields of nuclei were acquired on an Olympus IX81 T Spinning Disk Microscope and analyzed using Slidebook™ 5.0 software. A conservative scoring metric was used for copy gain. Any foci that were touching were scored as a single copy to prevent increased numbers due to normally replicated foci.

Data set [2] has as its system cells depleted of KDM4A (shA10). The data set is described as follows: Rapamycin sensitivity of KDM4A-depleted (shA10) cells transfected with wild-type or mutant KDM4A. It counts as cell-based. Conditions: shA10 depletion background. As to the method: Cells were depleted of KDM4A (shA10) and transfected with wild-type (WT) or mutant KDM4A. […] This differed from WT expression in the depletion background, which was less sensitive. […]
The effect of KMD4A mutations on drug sensitivity was examined by depleting cells of KDM4A (shA10) and then transfecting with wild-type or mutant KDM4A. The sensitivity of the cells to rapamycin was then determined. […] This differed from WT expression in the depletion background, which was less sensitive.

The next data set relates to H3K36me3. Kind of data set: H3K36 demethylase activity of KDM4A variants in transfected cells (immunofluorescence). Further details: key: + indicates active; − indicates inactive; +/− indicates partial acitivty. Conditions: KDM4A mutations. It counts as cell-based.
The test system of a further data set is H3K9me3. The data set is described as follows: H3K9 demethylase activity of KDM4 variants in transfected cells. To be noted: KDM4A mutations. The class given is cell-based. Further details: key: + indicates active; − indicates inactive; +/− indicates partial acitivty.

Consider `C[C@@H]1C[C@@H]([C@H](O)CC2CC(=O)NC(=O)C2)C(=O)[C@@H](C)C1` [Cycloheximide], for which the “cell growth vs DMSO, KDM4A shRNA cells” value with HEK 293T cells (HEK293T KDM4A shRNA, 30 nM) is reported as “slow growth”. Further, the “cell growth vs DMSO, control vector cells” value in the data set on HEK 293T cells (HEK293T control vector, 30 nM) is recorded as “do not slow growth”.

Regarding `CCN1C(=O)C=CC1=O` [NEM], in the data set on KDM4A (1% O2 6h), the “hypoxia-induced changes in KDM4A levels and/or localization” value was “reduced”. Further, the KDM4A chromatin association result in the data set with KDM4A is on record as “alters the chromatin association”.

With `CCCS(=O)(=O)Nc1ccc(F)c(C(=O)c2c[nH]c3ncc(Cl)cc23)c1F` [PLX-4720], in the data set on HEK 293T cells (HEK293T, PLX-4720), the “drug sensitivity of KDM4A shRNA cells vs control vector (growth curves, doubling time)” value is reported as “more sensitive”.

For the molecule `O=C1NC(=NCc2cccs2)S/C1=C\c1ccc2ncccc2c1` [R03306, reference compound], the “1q12h copy number in KDM4A overexpressing cells upon arrest” value in data set [1] (stable GFP-KDM4A RPE cells, arrested 20 hours) is reported as “failed to display increased copy number of 1q12h”.

As for “HP1γ: H3K9me3 binding protein, overexpressed by transfection”, in data set [1], the “hypoxia-dependent copy gain of 1q12h” value is on record as “able to abrogate hypoxic induction of site-specific copy gain”, the “hypoxia-induced 1q12h copy number gains” value is “antagonized” and the “KDM4A-dependent 1q12h copy gain upon co-expression” value is recorded as “significantly reduced the number of KDM4A overexpressing cells with altered copy number of 1q12h”.

B1: H188A: catalytic mutant of KDM4A (protein, UniProt O75164 2-1064, looked up, variant H188A)
Lysine-specific demethylase 4A: ASESETLNPSARIMTFYPTMEEFRNFSRYIAYIESQGAHRAGLAKVVPPKEWKPRASYDDIDDLVIPAPIQQLVTGQSGLFTQYNIQKKAMTVREFRKIANSDKYCTPRYSEFEELERKYWKNLTFNPPIYGADVNGTLYEKHVDEWNIGRLRTILDLVEKESGITIEGVNTPYLYFGMWKTSFAWATEDMDLYSINYLHFGEPKSWYSVPPEHGKRLERLAKGFFPGSAQSCEAFLRHKMTLISPLMLKKYGIPFDKVTQEAGEFMITFPYGYHAGFNHGFNCAESTNFATRRWIEYGKQAVLCSCRKDMVKISMDVFVRKFQPERYKLWKAGKDNTVIDHTLPTPEAAEFLKESELPPRAGNEEECPEEDMEGVEDGEEGDLKTSLAKHRIGTKRHRVCLEIPQEVSQSELFPKEDLSSEQYEMTECPAALAPVRPTHSSVRQVEDGLTFPDYSDSTEVKFEELKNVKLEEEDEEEEQAAAALDLSVNPASVGGRLVFSGSKKKSSSSLGSGSSRDSISSDSETSEPLSCRAQGQTGVLTVHSYAKGDGRVTVGEPCTRKKGSAARSFSERELAEVADEYMFSLEENKKSKGRRQPLSKLPRHHPLVLQECVSDDETSEQLTPEEEAEETEAWAKPLSQLWQNRPPNFEAEKEFNETMAQQAPHCAVCMIFQTYHQVEFGGFNQNCGNASDLAPQKQRTKPLIPEMCFTSTGCSTDINLSTPYLEEDGTSILVSCKKCSVRVHASCYGVPPAKASEDWMCSRCSANALEEDCCLCSLRGGALQRANDDRWVHVSCAVAILEARFVNIAERSPVDVSKIPLPRFKLKCIFCKKRRKRTAGCCVQCSHGRCPTAFHVSCAQAAGVMMQPDDWPFVVFITCFRHKIPNLERAKGALQSITAGQKVISKHKNGRFYQCEVVRLTTETFYEVNFDDGSFSDNLYPEDIVSQDCLQFGPPAEGEVVQVRWTDGQVYGAKFVASHPIQMYQVEFEDGSQLVVKRDDVYTLDEELPKRVKSRLSVASDMRFNEIFTEKEVKQEKKRQRVINSRYREDYIEPALYRAIME
B1: the “sensitivity of cells to rapamycin” value in data set [2] is on record as “did not reduce drug sensitivity”.

B2: 2A-R1025C*: KDM4A mutation (protein, UniProt O75164 2-1064, looked up, variant R1025C)
Lysine-specific demethylase 4A: B1 Lysine-specific demethylase 4A with A187H, R1024C
Take B2: the “sensitivity of cells to rapamycin” value in data set [2] is listed as “equally as sensitive as KDM4A/JMJD2A depletion”. Also, the “H3k36 Demethylase Activity” value with H3K36me3 is “+”. Also, the “H3k9 Demethylase Activity” value in the data set on H3K9me3 is recorded as “+”.

B3: Suv39H1: H3K9me3 methyltransferase, overexpressed by transfection (protein, UniProt O43463 1-412, looked up)
Histone-lysine …: MAENLKGCSVCCKSSWNQLQDLCRLAKLSCPALGISKRNLYDFEVEYLCDYKKIREQEYYLVKWRGYPDSESTWEPRQNLKCVRILKQFHKDLERELLRRHHRSKTPRHLDPSLANYLVQKAKQRRALRRWEQELNAKRSHLGRITVENEVDLDGPPRAFVYINEYRVGEGITLNQVAVGCECQDCLWAPTGGCCPGASLHKFAYNDQGQVRLRAGLPIYECNSRCRCGYDCPNRVVQKGIRYDLCIFRTDDGRGWGVRTLEKIRKNSFVMEYVGEIITSEEAERRGQIYDRQGATYLFDLDYVEDVYTVDAAYYGNISHFVNHSCDPNLQVYNVFIDNLDERLPRIAFFATRTIRAGEELTFDYNMQVDPVDMESTRMDSNFGLAGLPGSPKKRVRIECKCGTESCRKYLF
modifications: Halo tag
notes: H3K9me3 methyltransferase, overexpressed by transfection
Turning to B3, in data set [1], the “hypoxia-dependent copy gain of 1q12h” value is reported as “able to abrogate hypoxic induction of site-specific copy gain”, the “hypoxia-induced 1q12h copy number gains” value is listed as “antagonized” and the “KDM4A-dependent 1q12h copy gain upon co-expression” value is listed as “sufficient to abrogate KDM4A-dependent 1q12h copy gain”.
